{
  "source": "patent US20150126582A1",
  "about": "“Combination Treatment of Multiple Myeloma” (Sevion Therapeutics, Inc., priority 2012, published 2015)",
  "key": {"RPMI 8226 myeloma cells": {"test_system": "RPMI 8226 myeloma cells", "assay": "RPMI 8226 multiple myeloma subcutaneous tumors in SCID mice, 6 weeks of dosing", "details": "for tumor growth inhibited compared to control nanoparticles: end of 6 weeks of dosing", "protocol": "SCID mice are injected subcutaneously with RPMI 8226 cells. […] Groups of six SCID/CB17 mice (3-5 weeks old) are injected with 12 million RPMI 8226 myeloma cells in 200 μL PBS in their right flank and treatment is initiated when the tumours reached a minimum size of 10 mm^3.\nControl mice are injected intravenously two times per week with PEI complexes containing pCpG-mcs (empty vector) and control siRNA at a dose of 0.375 mg (nucleic acid)/kg. Mice receiving SNS01-T were injected intra-venously two times per week at 0.375 mg/kg. Mice treated with lenalidomide received 5 doses per week by intra-peritoneal injection of lenalidomide (Celgene) at doses of 15 mg/kg or 50 mg/kg. Mice receiving both SNS01-T and lenalidomide were dosed 2×/week with SNS01-T by intra-venous injection at 0.375 mg/kg and 5× per week with lenalidomide by intra-peritoneal injection at either 15 mg/kg or 50 mg/kg. […] Tumor volume is measured for all the mice in each group at least twice weekly."}, "[1]": {"test_system": "human myeloma tumors derived from RPMI 8226 cells", "assay": "Additional study: RPMI 8226 myeloma tumors in mice, 2 cycles of treatment, 102 days", "assay_type": "in vivo", "procedure": "In an additional study, mice implanted with human myeloma tumors derived from RPMI 8226 cells were randomized into 4 groups and treated with control nanoparticles, or, either SNS01-T (0.375 mg/kg; i.v., twice per week), lenalidomide (50 mg/kg; i.p., 5× per week) or both. The mice received 2 cycles of treatment, 6 weeks and 5 weeks respectively, with an 11 day rest period between cycles. Mice, whose tumors were undetectable at the end of cycle 1, received no drug treatment in cycle 2 unless tumor reappeared. The mice were monitored for 2 weeks after the end of the second cycle of treatment. The total length of the study was 102 days."}},
  "data": [
    {"smiles": "Nc1cccc2c1CN(C1CCC(=O)NC1=O)C2=O", "note": "(racemic) [lenalidomide, 3-(4-amino-oxo-1,3-dihydro-isoindol-2-yl)-piperidine-2,6-dione]", "values": [
      {"measurement": "tumor growth inhibited compared to control nanoparticles", "setting": "RPMI 8226 myeloma cells; lenalidomide 15 mg/kg i.p. 5 doses/week (alone, or with SNS01-T 0.375 mg/kg i.v. 2x/week)", "result": 51, "unit": "%"},
      {"measurement": "tumor growth inhibited compared to control nanoparticles", "setting": "RPMI 8226 myeloma cells; lenalidomide 50 mg/kg i.p. 5 doses/week (alone, or with SNS01-T 0.375 mg/kg i.v. 2x/week)", "result": 78, "unit": "%"},
      {"measurement": "surviving animals with undetectable tumors", "setting": "RPMI 8226 myeloma cells; end of 6 weeks, lenalidomide alone, 15 mg/kg or 50 mg/kg i.p. 5x/week", "result": "No surviving animals"},
      {"measurement": "median survival", "setting": "RPMI 8226 myeloma cells; lenalidomide 15 mg/kg i.p. 5x/week", "result": 53, "unit": "days"},
      {"measurement": "tumor growth inhibited compared to control nanoparticles", "setting": "[1]; end of the second cycle of dosing, lenalidomide 50 mg/kg i.p. 5x per week (alone, or with SNS01-T 0.375 mg/kg i.v. twice per week)", "result": 34, "unit": "%"},
      {"measurement": "median survival", "setting": "[1]; lenalidomide 50 mg/kg i.p. 5x per week, study length 102 days", "result": 95, "unit": "days"}
    ]}
  ]
}
